IC50 and EC50 data for two compounds are collected here from ChEMBL document CHEMBL1201862, “PubChem BioAssay data set” (2004).

Assay [1] addresses T1, Sentrin-specific protease 8 (Homo sapiens, UniProt Q96LD8).
T1 sequence (Q96LD8 whole entry): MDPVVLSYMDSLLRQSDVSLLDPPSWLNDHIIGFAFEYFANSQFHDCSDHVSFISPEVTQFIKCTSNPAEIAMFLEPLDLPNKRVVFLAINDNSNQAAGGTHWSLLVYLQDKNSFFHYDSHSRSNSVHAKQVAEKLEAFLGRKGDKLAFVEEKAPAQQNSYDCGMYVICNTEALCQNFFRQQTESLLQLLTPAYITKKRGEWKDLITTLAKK
Type of assay: functional.

The target of assay [2] is T2, Sentrin-specific protease 7 (Homo sapiens, UniProt Q9BQF6).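 Also: Luminescence-based dose-response confirmation of ultra-high-throughput screening hits, measuring inhibition of SENP7.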
T2 sequence (Q9BQF6 whole entry): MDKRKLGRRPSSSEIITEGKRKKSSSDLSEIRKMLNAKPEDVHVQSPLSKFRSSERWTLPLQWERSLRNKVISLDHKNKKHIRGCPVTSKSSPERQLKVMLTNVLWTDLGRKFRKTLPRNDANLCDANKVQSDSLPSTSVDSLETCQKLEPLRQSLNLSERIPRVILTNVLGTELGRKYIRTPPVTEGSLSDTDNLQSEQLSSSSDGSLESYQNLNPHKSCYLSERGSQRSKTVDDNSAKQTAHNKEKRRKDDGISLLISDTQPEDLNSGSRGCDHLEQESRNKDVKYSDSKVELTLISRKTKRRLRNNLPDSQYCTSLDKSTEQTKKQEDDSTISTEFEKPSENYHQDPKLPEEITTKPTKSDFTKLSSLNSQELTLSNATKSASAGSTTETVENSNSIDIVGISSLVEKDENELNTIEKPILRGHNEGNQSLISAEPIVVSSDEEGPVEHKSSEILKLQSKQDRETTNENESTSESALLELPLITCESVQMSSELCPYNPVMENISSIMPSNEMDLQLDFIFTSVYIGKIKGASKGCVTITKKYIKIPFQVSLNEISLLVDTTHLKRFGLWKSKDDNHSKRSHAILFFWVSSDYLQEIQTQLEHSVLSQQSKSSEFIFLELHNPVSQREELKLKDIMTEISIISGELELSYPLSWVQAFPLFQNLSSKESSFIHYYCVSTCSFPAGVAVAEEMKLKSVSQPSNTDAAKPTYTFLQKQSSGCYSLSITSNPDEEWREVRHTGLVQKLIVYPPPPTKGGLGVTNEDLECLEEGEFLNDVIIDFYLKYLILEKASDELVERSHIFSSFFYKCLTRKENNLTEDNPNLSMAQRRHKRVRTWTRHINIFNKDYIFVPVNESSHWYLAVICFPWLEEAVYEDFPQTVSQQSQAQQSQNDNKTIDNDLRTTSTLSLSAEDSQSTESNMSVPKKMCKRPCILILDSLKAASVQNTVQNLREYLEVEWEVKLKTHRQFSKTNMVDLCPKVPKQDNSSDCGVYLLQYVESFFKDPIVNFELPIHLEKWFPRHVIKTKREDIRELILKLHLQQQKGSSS
Type of assay: functional.

The target in assay [3] is T3, Serine/threonine-protein phosphatase (Candida dubliniensis (strain CD36 / CBS 7987 / NCPF 3949 / NRRLY-17841) (Yeast), UniProt B9W6M3).
T3 sequence (B9W6M3 whole entry): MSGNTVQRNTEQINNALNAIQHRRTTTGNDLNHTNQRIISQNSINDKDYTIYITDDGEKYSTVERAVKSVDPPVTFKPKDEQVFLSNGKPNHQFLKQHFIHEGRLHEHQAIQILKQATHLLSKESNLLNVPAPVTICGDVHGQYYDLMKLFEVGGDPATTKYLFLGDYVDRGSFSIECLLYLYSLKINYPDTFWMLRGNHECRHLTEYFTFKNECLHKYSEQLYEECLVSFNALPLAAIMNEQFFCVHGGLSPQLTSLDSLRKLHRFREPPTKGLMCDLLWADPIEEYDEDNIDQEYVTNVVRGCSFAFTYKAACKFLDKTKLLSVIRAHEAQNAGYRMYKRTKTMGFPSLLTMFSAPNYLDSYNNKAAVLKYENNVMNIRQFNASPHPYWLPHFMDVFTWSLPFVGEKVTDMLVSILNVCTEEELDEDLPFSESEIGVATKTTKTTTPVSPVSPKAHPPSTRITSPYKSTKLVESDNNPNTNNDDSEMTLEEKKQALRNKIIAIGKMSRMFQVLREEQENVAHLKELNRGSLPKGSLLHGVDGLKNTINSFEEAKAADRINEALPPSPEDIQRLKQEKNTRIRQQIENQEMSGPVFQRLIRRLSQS
Description: calcineurin pathway inhibitors in yeast reporter, dose response, S. cerevisiae, CDRE-lacZ, luminescence, secondary (AID 2388).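 Also: yeast reporter cells carrying a calcineurin-responsive lacZ construct stimulated with calcium chloride; luminescent beta-galactosidase reporter signal in whole cells rather than isolated phosphatase activity; potency for inhibition where a drop in reporter signal means calcineurin blockade.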 The assay is classed as functional, cell-based.

The target of assay [4] is ATP-dependent molecular chaperone HSP82 (Candida albicans (strain WO-1) (Yeast), UniProt C4YTQ8). Description: loss of DOC-induced GRE-beta-galactosidase reporter signal, dose response, Hsp90 inhibitor project, S. cerevisiae, luminescence (AID 2400).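 Also: beta-galactosidase luminescence from glucocorticoid response element reporter as proxy for Hsp90 function; inhibitor potency where signal loss means Hsp90 inhibition.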 Type of assay: functional, cell-based.
Assay [5] can be described thus: cells. Type of assay: functional, cell-based.
The target of a further assay is Hexokinase-1 (Homo sapiens, UniProt P19367). Description: hexokinase 1 activators, dose response, selectivity assay for HKDC1 activator project, biochemical (AID 504762). The assay is classed as functional.
Assay [6] is described as follows: C. albicans growth with fluconazole, confirmation, fluorescence, retest (AID 2467). The assay is classed as functional, cell-based.
Assay [7] is described as follows: cells.

Structures are written as SMILES. Active and inactive are the calls of the source.

Hexokinase-1, sequence (P19367 whole entry): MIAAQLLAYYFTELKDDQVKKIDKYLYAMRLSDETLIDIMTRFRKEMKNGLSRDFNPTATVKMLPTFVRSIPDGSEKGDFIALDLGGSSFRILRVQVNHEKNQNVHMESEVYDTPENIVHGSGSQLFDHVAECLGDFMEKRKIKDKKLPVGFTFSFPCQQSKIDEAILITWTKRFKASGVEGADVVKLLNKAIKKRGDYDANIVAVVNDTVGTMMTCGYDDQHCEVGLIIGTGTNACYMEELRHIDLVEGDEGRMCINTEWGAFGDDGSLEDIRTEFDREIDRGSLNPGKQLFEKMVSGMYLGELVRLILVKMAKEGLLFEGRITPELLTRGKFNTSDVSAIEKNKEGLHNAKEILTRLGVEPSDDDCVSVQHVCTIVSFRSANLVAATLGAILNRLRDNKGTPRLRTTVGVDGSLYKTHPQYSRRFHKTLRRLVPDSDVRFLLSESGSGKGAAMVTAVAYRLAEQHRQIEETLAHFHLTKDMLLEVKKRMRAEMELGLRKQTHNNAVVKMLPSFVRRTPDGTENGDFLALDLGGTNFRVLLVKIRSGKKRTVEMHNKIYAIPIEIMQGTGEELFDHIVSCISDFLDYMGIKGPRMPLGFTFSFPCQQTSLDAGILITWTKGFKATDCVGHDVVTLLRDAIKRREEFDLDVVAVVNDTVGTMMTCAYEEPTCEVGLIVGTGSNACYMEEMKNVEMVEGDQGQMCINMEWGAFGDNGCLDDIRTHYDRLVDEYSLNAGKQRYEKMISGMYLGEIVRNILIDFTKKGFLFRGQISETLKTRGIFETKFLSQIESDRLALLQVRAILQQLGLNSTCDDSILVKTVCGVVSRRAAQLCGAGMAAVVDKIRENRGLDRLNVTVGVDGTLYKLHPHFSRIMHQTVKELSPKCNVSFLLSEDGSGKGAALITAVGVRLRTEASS
ATP-dependent molecular chaperone HSP82, sequence (C4YTQ8 whole entry): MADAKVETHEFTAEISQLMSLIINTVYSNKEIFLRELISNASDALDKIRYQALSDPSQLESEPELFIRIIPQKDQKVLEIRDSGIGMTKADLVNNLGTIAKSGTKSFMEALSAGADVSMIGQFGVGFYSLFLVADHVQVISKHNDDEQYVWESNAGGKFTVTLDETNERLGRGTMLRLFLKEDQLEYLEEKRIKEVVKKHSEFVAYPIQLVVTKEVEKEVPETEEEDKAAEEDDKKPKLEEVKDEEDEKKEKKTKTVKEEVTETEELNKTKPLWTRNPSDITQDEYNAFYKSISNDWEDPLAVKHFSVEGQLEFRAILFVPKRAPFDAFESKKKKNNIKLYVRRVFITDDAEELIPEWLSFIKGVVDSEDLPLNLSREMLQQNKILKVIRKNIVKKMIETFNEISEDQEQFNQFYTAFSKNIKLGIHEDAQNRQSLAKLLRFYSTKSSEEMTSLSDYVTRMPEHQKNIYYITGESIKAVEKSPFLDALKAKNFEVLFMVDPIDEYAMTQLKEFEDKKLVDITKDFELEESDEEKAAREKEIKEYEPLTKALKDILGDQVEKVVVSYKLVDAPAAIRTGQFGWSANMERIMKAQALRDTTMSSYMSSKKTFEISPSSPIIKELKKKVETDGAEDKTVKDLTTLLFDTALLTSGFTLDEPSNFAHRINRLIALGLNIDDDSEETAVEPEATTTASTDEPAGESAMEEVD

For `CCOc1cccc(/C=N/NC(=S)Nc2ccccc2[N+](=O)[O-])c1O`, the values for the IC50 in assay [1] and in assay [2] were 12.8 µM (active) and 2.65 µM (active), respectively.

With `CCCCC(=O)NC(c1ccc(N(CC)CC)cc1)c1ccc2cccnc2c1O` (stereo not drawn), the EC50 (as a rule, the concentration needed to bring the measured effect to its halfway point) in assay [3] was > 180 µM (inactive); in assay [4], > 150 µM (inactive); in the assay “cells [5]”, 3.08 µM (active); at Hexokinase-1, > 80 µM (inactive); in assay [6] it was 0.405 µM (active); in the assay “cells [7]” it was 0.241 µM (active).
